Several values for one entry are separate records, joined by “and”; a condition that tells them apart may be missing. Equal values may be shown once. Read-outs that look alike come from different tables or passages of the source.
How the values were obtained:
Plasmepsin V (PmV) = target: T1, Plasmepsin V (PmV) (Plasmodium falciparum, UniProt Q8I6Z5); assay: PmV inhibition, fluorimetric PExEl cleavage assay; type: biochemical
T1 construct: PmV was purified directly from parasites; made in house
Description: Saponin was added to culture to a final 0.05%; parasites were recovered via centrifugation at 4°C after 5 min of incubation on ice; parasite pellets were then washed twice in cold PBS and either immediately lysed or stored at -80°C until lysis. Parasites were lysed via three pulses of ultra-sonication of 10 sec duration, in PBS containing 0.5% Triton-X100 (TX-100). […] Quick washes of the resin were performed either in batches, or over columns, to remove unbound cellular material (four with ice-cold 0.5% TX-100 in PBS and a final one with cold PBS). Resin-bound PmV was stored in PBS at 4°C and used within 2–3 weeks, larger batches had Glycerol added to them, up to 10%, and were stored at -20°C for up to 5 months. […] Quality and purity of PmV batches were routinely confirmed by protein electrophoresis. Quantification of PmV was performed via densitometry analysis of stained protein SDS-PAGE gels relative to BSA standard curves.
PExEl cleavage activity was monitored by fluorimetric measurement of PExEl cleavage, as previously reported. […] PmV activity was performed at 37°C in 50 mM Tris-Maleate, pH 6.5, 50 mM NaCl, 0.05% TX-100, 2 mM DTT. Assays were routinely conducted in triplicate. Bead-bound enzyme was added to the reaction using ‘end-cut’ micropipette tips in order to facilitate sampling the suspension.
Inhibitory activities were measured in the presence of a substrate concentration of 3 μM by serial dilution of each compound in triplicates. […] Titration curves of the inhibitors were routinely composed of eleven points from 10 μM to 0.1 pM. PmV concentration was kept in the order of low picomolar (≤10 pM). […] Analysis of the half inhibitory activity (IC50) was performed by sigmoidal interpolation of the starting velocities of the hydrolytic reactions for each condition. Starting velocities were calculated on the initial linear range of the product progression curves. […] Data are presented with error bars indicating the standard deviation of three independent activity curves.

[1] = system: Plasmodium falciparum strain 3D7; assay: Parasite growth inhibition by flow cytometry, strain 3D7; type: cell-based; settings: asynchronous 3D7 cultures, about 4 days, 0.195–200 μM, flow cytometry
[2] = 3 μM HRPII-PExEl substrate, averages of not less than three inhibition curves, read-out: IC50

T1 sequence (Q8I6Z5 whole entry): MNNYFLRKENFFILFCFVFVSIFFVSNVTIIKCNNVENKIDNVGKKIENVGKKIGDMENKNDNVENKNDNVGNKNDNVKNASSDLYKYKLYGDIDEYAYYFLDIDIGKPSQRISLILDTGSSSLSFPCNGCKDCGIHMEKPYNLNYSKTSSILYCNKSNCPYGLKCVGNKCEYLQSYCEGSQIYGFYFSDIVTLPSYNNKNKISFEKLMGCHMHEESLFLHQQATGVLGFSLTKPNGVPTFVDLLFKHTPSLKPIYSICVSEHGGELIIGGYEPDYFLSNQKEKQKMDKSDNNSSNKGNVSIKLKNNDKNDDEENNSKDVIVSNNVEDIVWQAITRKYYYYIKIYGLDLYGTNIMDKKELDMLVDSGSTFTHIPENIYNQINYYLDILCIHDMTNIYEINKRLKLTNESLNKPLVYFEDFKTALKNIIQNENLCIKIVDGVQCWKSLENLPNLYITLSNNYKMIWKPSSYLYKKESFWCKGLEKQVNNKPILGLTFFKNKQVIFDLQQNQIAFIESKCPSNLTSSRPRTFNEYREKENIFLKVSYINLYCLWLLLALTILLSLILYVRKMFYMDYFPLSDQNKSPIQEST

Row | SMILES | IC50 increase compared to Compound 1 (Plasmepsin V (PmV)) | Ki (Plasmepsin V (PmV)) [nM] | IC50 (Plasmepsin V (PmV); [2]) [nM] | LD50 growth inhibition [1] | IC50 increase compared to Compound 5 (Plasmepsin V (PmV)) | IC50 (Plasmepsin V (PmV); 3 μM substrate, tested up to 10 μM) | fold more active than parent compound 7a (Plasmepsin V (PmV)) | IC50 (Plasmepsin V (PmV); 3 μM substrate, read-out: IC50) [nM]
1 | CC(C)C[C@H](NC(=O)[C@@H](N)CCCNC(=N)N)C(=O)N[C@@H](CC(C)C)C(O)CN[C@@H](C)C(=O)N[C@@H](CCC(=O)O)C(=O)N[C@@H](C)C(=O)O (mixture of isomers) [Compound 4] | 1.3–3.5 fold | 0.7 | 1.31 | > 200 µM | – | – | – | –
2 | CC[C@H](C)[C@H](NC(=O)[C@@H](N)CCCNC(=N)N)C(=O)N[C@@H](CC(C)C)C(O)CN[C@@H](C)C(=O)N[C@@H](CCC(=O)O)C(=O)N[C@@H](C)C(N)=O (mixture of isomers) [Compound 5] | – | 0.35 | 0.65 | > 200 µM | – | – | – | –
3 | CC[C@H](C)[C@H](NC(=O)[C@@H](N)CCCNC(=N)N)C(=O)N[C@@H](CC(C)C)C(O)CN[C@@H](C)C(=O)N[C@@H](CCC(=O)O)C(=O)N[C@@H](C)C(=O)O (mixture of isomers) [Compound 6] | – | 1.16 | 2.16 | > 200 µM | 1.3–3.5 fold | – | – | –
4 | CSCC[C@H](N)C(=O)N[C@@H](CC(C)C)C(=O)N[C@@H](CC(C)C)C(O)CN[C@@H](C)C(=O)N[C@@H](CCC(=O)O)C(=O)N[C@@H](C)C(=O)O (mixture of isomers) [Compound 16] | – | – | > 10000 | > 200 µM | – | completely inactive | – | –
5 | CC(=O)N[C@@H](CCCNC(=N)N)C(=O)N[C@@H](CC(C)C)C(=O)N[C@@H](CC(C)C)C(O)CN[C@@H](C)C(=O)N[C@@H](CCC(N)=O)C(=O)N[C@@H](C)C(N)=O (mixture of isomers) [Compound 35] | – | 63.5 | 118 | 16.5 μM and ~ 16.5 μM | – | – | – | –
6 | CC(C)C[C@H](NC(=O)[C@@H](N)CCCNC(=N)N)C(=O)N[C@@H](CC(C)C)[C@@H](O)CN[C@@H](C)C(=O)N[C@@H](CCC(N)=O)C(=O)N[C@@H](C)C(N)=O [Compound 8a] | ~ 4 fold | 0.83 | 1.55 | 64.1 µM | – | – | – | –
7 | CC(C)C[C@H](NC(=O)[C@@H](N)Cc1c[nH]c2ccccc12)C(=O)N[C@@H](CC(C)C)[C@@H](O)CN[C@@H](C)C(=O)N[C@@H](CCC(=O)O)C(=O)N[C@@H](C)C(N)=O [Compound 15a] | – | 1380 | 2570 | ~ 100.5 μM | – | – | – | –
8 | CC(C)C[C@H](NC(=O)[C@@H](N)CCC(N)=O)C(=O)N[C@@H](CC(C)C)[C@@H](O)CN[C@@H](C)C(=O)N[C@@H](CCC(=O)O)C(=O)N[C@@H](C)C(=O)O [Compound 17a] | – | 2360 | 4390 | > 200 µM | – | – | – | –
9 | CCCCCCCC(=O)N[C@@H](CCCNC(=N)N)C(=O)N[C@@H](CC(C)C)C(=O)N[C@@H](CC(C)C)[C@@H](O)CN[C@@H](Cc1ccc(O)cc1)C(=O)N[C@@H](CCC(=O)O)C(=O)N[C@@H](C)C(N)=O [Compound 37a] | – | 0.01 | 0.023 | > 200 µM | – | – | more than 50 fold | ~0.023
10 | O=c1oc2c(O)c(O)cc3c(=O)oc4c(O)c(O)cc1c4c23 [Ellagic acid, reference compound] | – | – | – | 2.4 µM | – | – | – | –
